Legend:
[1] = target: T1, IN^PFV-viral DNA interaction (Human spumaretrovirus, UniProt P14350); experiment: IN-viral DNA interaction by steady-state fluorescence anisotropy of Fl-DNA with increasing drug concentrations; format: binding, prototype foamy virus (PFV); settings: 400 nM IN^PFV, 4 nM Fl-PFV^CAAT, 10 mM Mg2+, up to 20 µM drug; means INSTI did not prevent IN-DNA interactions
T1 construct: The full-length wt IN^PFV, the three single mutants of the catalytic triad; His; made in house; host or cells: E. coli BL21-CodonPlus (DE3)-RIPL
Experimental: Their incapability to prevent or disrupt IN-viral DNA complexes was consistently observed over the whole concentration range, regardless of the INSTI tested (Supplementary Fig. S7).
IN^PFV binding to DNA was measured by fluorescence anisotropy on a Beacon Instrument (Panvera, Madison, WI, USA) as previously described[25],[51], using a double-stranded 21-mer Fl-labeled DNA mimicking the PFV U5 LTR end also referred to as DNA#1 in Table 1 (labeled at the 5′-end of the reactive strand). IN binding to Fl-PFV^CAAT (or Fl-DNA#1) was compared to the binding to other DNA sequences (Fl-DNA#8 #9 #13). DNA annealing was obtained by mixing equimolar amounts of complementary strands in buffer A, heating to 85 °C for 5 min and slow cooling to 25 °C. DNA-binding experiments were performed at 25 °C in buffer A.
Figure S7. Differential effect of INSTI and INBI compounds on the INPFV-viral DNA interaction.
The formation of IN-DNA complexes was measured by steady-state fluorescence anisotropy using 400 nM INPFV and 4 nM Fl-PFVCAAT (also named Fl-DNA#1) in the presence of 10 mM Mg2+ and […]
In each plot, the starting r value (≈ 0.20) corresponds to the typical value found at saturating concentrations of IN (see Fig. S6).
The INBI compound FZ41, a member of the styrylquinoline family of inhibitors, was used as a control […]
show mean ± SD values from two independent experiments. […]

[2] = target: T2, IN^PFV-DNA complexes (DNA#1, DNA#6, DNA#7) (Human spumaretrovirus, UniProt P14350); experiment: Inhibition of ST activity by DTG using DNA#1, DNA#6 or DNA#7 substrates; format: biochemical, prototype foamy virus (PFV); settings: 100 nM DTG, 300 nM IN
T2 construct: The full-length wt IN^PFV, the three single mutants of the catalytic triad; His; made in house; host or cells: E. coli BL21-CodonPlus (DE3)-RIPL
Description: The results in Table 1 cannot discriminate between a direct sequence effect on DTG-binding from an indirect effect via a possible defect in the IN-DNA interaction. The binding of IN to various DNA sequences (DNA#1 #8 #9 and #13) was similar, as measured by fluorescence anisotropy using fluorescein-labeled DNAs (Supplementary Fig. S5A). […] The X-ray structure of the IN^PFV-DNA complex highlights specific contacts (about 9) between amino acids and the bases of the two strands (i.e. reactive and non-transferred DNA strands), up to the 10th position from the reactive strand 3′-end[26]. In particular, there is a specific contact involving a guanine of the non-transferred strand at pos. 10 and the N69 residue. […] To note, based on X-ray structures of ternary RAL/or DTG-IN-DNA complexes[26],[29] in which the INSTI has direct contacts with several bases at pos.
Figure S5. Comparison of the binary INPFV-DNA complex formation using various DNA sequences. (A) The binding of INPFV to various DNA sequences was studied by steady-state […]
concentrations of IN and DNA were mixed in the presence of 1mM Mg2+ and the r parameter was monitored. A constant concentration of Fl-DNA (0.3 µM) was maintained throughout the titration. The percentage of binary complexes as a function of (IN+DNA) was calculated using: %=(r–r0)/(rmax–r0) x100 where r0 and rmax correspond to anisotropy values of free DNA and IN-bound DNA, respectively.
(B) ST activity of IN (200 or
300 nM) after 4h incubation at 37°C using radiolabeled DNA#1, #6 or #7. Results are expressed as percentage of the activity corresponding to: DNA#1 + 300 nM IN. (C) Inhibition of the ST activity by […]
IN concentration was 300 nM. For each substrate,
The bar graphs in panels B-
(also on this page, place not known: PFV-DNA steady -state IN Strand transfer activity (% of ST with and 300 nM IN) strand transfer (% of untreated) Binary IN-DNA complexes (%) DNA#1)

[3] = target: T3, D185N IN^PFV-DNA complex (Human spumaretrovirus, UniProt P14350, D936N); experiment: Fluorescence enhancement DTG-binding assay, D185N catalytic mutant; design: species or system prototype foamy virus (PFV); settings: 1 mM Mg2+
T3 construct: The pET-IN-PFV plasmid containing the full-length IN gene was used for mutagenesis; His; made in house; host or cells: E. coli BL21-CodonPlus (DE3)-RIPL
Experimental: The fluorescence intensity was monitored as a function of (IN + DNA) and plotted as a function of the binary IN-DNA complex concentration (measured as explained in Fig. 2E legend). […] (B) The percentage of ternary complexes was calculated using DTG fluorescence enhancement. […] The graphs in panels A-B show representative data of three independent experiments. […] "DTG" is taken from the y-axis title of the same panel.
To note, Mg^2+ is dispensable for the overall DNA-binding step of IN[32],[43]–[45] and thus, the loss of Mg^2+ chelation is not contradictory with results showing that catalytic mutants bind equally well to DNA and in a similar manner than wt IN (Supplementary Fig. S6). However, G187R cannot be considered as a catalytic mutant since it sustains a significant ST activity although weak (≈10% of the wt activity; Fig. 6).
Fluorescence excitation and emission spectra of INSTIs were recorded on a Eclipse (Varian) spectrofluorimeter equipped with two polarizers for anisotropy measurements and a thermostated cell holder, using 80 µl solutions placed in micro cells (Hellma). […] The steady-state fluorescence anisotropy was calculated using: r = (IVV–G x IVH)/(IVV + 2GxIVH) where IVV and IVH correspond to vertical and horizontal components, respectively, when the sample is excited with vertically polarized light. […]

[4] = system: S217K IN^PFV mutant; format: biochemical, prototype foamy virus (PFV); settings: S217K versus wt, ST activity
Experimental: The graphs show representative data of three independent experiments. […] ST products were quantified as explained in the Methods section.
DNA#13 mimicking the 3′-processed end (Table 1) was radiolabeled with T4 polynucleotide kinase (NEB) and [γ-^32P]ATP (Amersham) and purified on a Sephadex G-10 column. The double-stranded DNA substrate was obtained by mixing equimolar amounts of ssDNA#13 with its 21-mer complementary strand in the presence of 100 mM NaCl. ST reactions were carried out at 37 °C with 200 or 300 nM IN in 20 mM HEPES pH 6.8, 1 mM DTT, 10 mM MgCl2 and 50 mM NaCl, in the presence of 12.5 nM DNA. After separation in a 16% acrylamide/urea denaturing gel, ST products were analyzed with a Typhoon TRIO variable mode imager (GE Healthcare) and quantified with ImageQuant TL software. ST activity was expressed as the % of the signal intensity of ST products divided by the signal intensity of the DNA substrate. […] IC50 values were determined using the Prism 5.0 software.

[5] = system: S217H IN^PFV mutant; settings: S217H versus wt; cited from earlier work

C[C@@H]1CCO[C@H]2Cn3cc(C(=O)NCc4ccc(F)cc4F)c(=O)c(O)c3C(=O)N12 [DTG, dolutegravir]
r value of Fl-DNA (IN-DNA complex) on increasing INSTI concentration [1]: remained constant
ST inhibition by DTG ([2]; IN-DNA#1 complexes): remained DTG-sensitive
ST inhibition by DTG ([2]; IN-DNA#6 complexes): remained DTG-sensitive
ST inhibition by DTG ([2]; IN-DNA#7 complexes): absence of ST inhibition
DTG binding to D185N catalytic mutant [3]: loss of DTG-binding
decrease in DTG susceptibility [4]: ≈ 50 fold
decrease in DTG susceptibility [5]: 2–3 fold

Reference: paper PMC5656594 (Scientific Reports, 2017)
